Source: PubChem BioAssay (NCI)
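96-well plates; 48 h exposure; 5 concentrations. Endpoints by linear interpolation between flanking doses. Not reached: highest tested concentration assigned. Here, GI50 denotes the concentration required for 50% inhibition of growth. TGI marks complete inhibition of growth.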

What was measured:
Test in all cases: NCI-60 cell line screen, 48 h
HCT-116 colon = test system: HCT-116 colon
KM12 colon = test system: KM12 colon
MDA-MB-468 breast = test system: MDA-MB-468 breast
HL-60(TB) leukemia = test system: HL-60(TB) leukemia
SF-539 CNS = test system: SF-539 CNS
CAKI-1 renal = test system: CAKI-1 renal
M14 melanoma = test system: M14 melanoma
OVCAR-8 ovarian = test system: OVCAR-8 ovarian
UO-31 renal = test system: UO-31 renal
U251 CNS = test system: U251 CNS
SW-620 colon = test system: SW-620 colon
HCT-15 colon = test system: HCT-15 colon
SN12C renal = test system: SN12C renal
CCRF-CEM leukemia = test system: CCRF-CEM leukemia
MDA-MB-231 breast = test system: MDA-MB-231 breast
NCI-H522 lung = test system: NCI-H522 lung
NCI/ADR-RES ovarian = test system: NCI/ADR-RES ovarian
RPMI-8226 leukemia = test system: RPMI-8226 leukemia
ACHN renal = test system: ACHN renal
HCC-2998 colon = test system: HCC-2998 colon
COLO 205 colon = test system: COLO 205 colon
DU-145 prostate = test system: DU-145 prostate
MCF7 breast = test system: MCF7 breast
NCI-H460 lung = test system: NCI-H460 lung
A498 renal = test system: A498 renal
SK-OV-3 ovarian = test system: SK-OV-3 ovarian
UACC-257 melanoma = test system: UACC-257 melanoma
T-47D breast = test system: T-47D breast
K-562 leukemia = test system: K-562 leukemia
EKVX NSCLC = test system: EKVX NSCLC
SNB-75 CNS = test system: SNB-75 CNS
SR leukemia = test system: SR leukemia
SK-MEL-2 melanoma = test system: SK-MEL-2 melanoma
HT29 colon = test system: HT29 colon
SF-295 CNS = test system: SF-295 CNS
NCI-H23 lung = test system: NCI-H23 lung
OVCAR-5 ovarian = test system: OVCAR-5 ovarian
OVCAR-3 ovarian = test system: OVCAR-3 ovarian
SK-MEL-5 melanoma = test system: SK-MEL-5 melanoma
HOP-92 NSCLC = test system: HOP-92 NSCLC
HOP-62 NSCLC = test system: HOP-62 NSCLC
BT-549 breast = test system: BT-549 breast
NCI-H226 lung = test system: NCI-H226 lung
RXF 393 renal = test system: RXF 393 renal
SF-268 CNS = test system: SF-268 CNS
A549 NSCLC = test system: A549 NSCLC
MALME-3M melanoma = test system: MALME-3M melanoma
PC-3 prostate = test system: PC-3 prostate
LOX IMVI melanoma = test system: LOX IMVI melanoma
786-0 renal = test system: 786-0 renal
SK-MEL-28 melanoma = test system: SK-MEL-28 melanoma
MOLT-4 leukemia = test system: MOLT-4 leukemia
HS 578T breast = test system: HS 578T breast
OVCAR-4 ovarian = test system: OVCAR-4 ovarian
SNB-19 CNS = test system: SNB-19 CNS
TK-10 renal = test system: TK-10 renal
IGROV1 ovarian = test system: IGROV1 ovarian
UACC-62 melanoma = test system: UACC-62 melanoma
MDA-MB-435 = test system: MDA-MB-435

Structure (SMILES): Clc1ccc(-c2nc3ccc(-c4nnc(SCc5ccccc5)o4)cc3[nH]2)cc1
- GI50 (HCT-116 colon): 3.25 µM
- TGI (HCT-116 colon): > 100 µM
- GI50 (KM12 colon): 17.6 µM
- TGI (KM12 colon): > 100 µM
- GI50 (MDA-MB-468 breast): 3.32 µM
- TGI (MDA-MB-468 breast): 15.3 µM
- GI50 (HL-60(TB) leukemia): 26.2 µM
- TGI (HL-60(TB) leukemia): > 100 µM
- GI50 (SF-539 CNS): 2.98 µM
- TGI (SF-539 CNS): 10.2 µM
- GI50 (CAKI-1 renal): 16.1 µM
- TGI (CAKI-1 renal): 54.7 µM
- GI50 (M14 melanoma): 25.5 µM
- TGI (M14 melanoma): > 100 µM
- GI50 (OVCAR-8 ovarian): 6.49 µM
- TGI (OVCAR-8 ovarian): 27.5 µM
- GI50 (UO-31 renal): 9.18 µM
- TGI (UO-31 renal): > 100 µM
- GI50 (U251 CNS): 2.69 µM
- TGI (U251 CNS): 6.8 µM
- GI50 (SW-620 colon): 3.41 µM
- TGI (SW-620 colon): 43.2 µM
- GI50 (HCT-15 colon): 3.75 µM
- TGI (HCT-15 colon): 27.4 µM
- GI50 (SN12C renal): 1.87 µM
- TGI (SN12C renal): 4.05 µM
- GI50 (CCRF-CEM leukemia): 4.91 µM
- TGI (CCRF-CEM leukemia): > 100 µM
- GI50 (MDA-MB-231 breast): 5.36 µM
- TGI (MDA-MB-231 breast): 36.1 µM
- GI50 (NCI-H522 lung): 2.83 µM
- TGI (NCI-H522 lung): 10.3 µM
- GI50 (NCI/ADR-RES ovarian): 4.09 µM
- TGI (NCI/ADR-RES ovarian): 21.5 µM
- GI50 (RPMI-8226 leukemia): 8.07 µM
- TGI (RPMI-8226 leukemia): > 100 µM
- GI50 (ACHN renal): 14.5 µM
- TGI (ACHN renal): > 100 µM
- GI50 (HCC-2998 colon): 19.9 µM
- TGI (HCC-2998 colon): > 100 µM
- GI50 (COLO 205 colon): 15.5 µM
- TGI (COLO 205 colon): > 100 µM
- GI50 (DU-145 prostate): 57 µM
- TGI (DU-145 prostate): > 100 µM
- GI50 (MCF7 breast): 3.08 µM
- TGI (MCF7 breast): > 100 µM
- GI50 (NCI-H460 lung): 5.37 µM
- TGI (NCI-H460 lung): > 100 µM
- GI50 (A498 renal): 18.2 µM
- TGI (A498 renal): 42.5 µM
- GI50 (SK-OV-3 ovarian): 23 µM
- TGI (SK-OV-3 ovarian): > 100 µM
- GI50 (UACC-257 melanoma): 22.8 µM
- TGI (UACC-257 melanoma): > 100 µM
- GI50 (T-47D breast): 3.05 µM
- TGI (T-47D breast): 41.3 µM
- GI50 (K-562 leukemia): 4.78 µM
- TGI (K-562 leukemia): > 100 µM
- GI50 (EKVX NSCLC): 4.18 µM
- TGI (EKVX NSCLC): 39 µM
- GI50 (SNB-75 CNS): 2.13 µM
- TGI (SNB-75 CNS): 22.9 µM
- GI50 (SR leukemia): 5.86 µM
- TGI (SR leukemia): > 100 µM
- GI50 (SK-MEL-2 melanoma): 16.2 µM
- TGI (SK-MEL-2 melanoma): > 100 µM
- GI50 (HT29 colon): 16.9 µM
- TGI (HT29 colon): > 100 µM
- GI50 (SF-295 CNS): 5.41 µM
- TGI (SF-295 CNS): 52.3 µM
- GI50 (NCI-H23 lung): 6.21 µM
- TGI (NCI-H23 lung): 74.2 µM
- GI50 (OVCAR-5 ovarian): 5.87 µM
- TGI (OVCAR-5 ovarian): 97.1 µM
- GI50 (OVCAR-3 ovarian): 2.7 µM
- TGI (OVCAR-3 ovarian): 7.61 µM
- GI50 (SK-MEL-5 melanoma): 4.87 µM
- TGI (SK-MEL-5 melanoma): 33.4 µM
- GI50 (HOP-92 NSCLC): 11.5 µM
- TGI (HOP-92 NSCLC): 48.3 µM
- GI50 (HOP-62 NSCLC): 16.4 µM
- TGI (HOP-62 NSCLC): 86.6 µM
- GI50 (BT-549 breast): 24 µM
- TGI (BT-549 breast): > 100 µM
- GI50 (NCI-H226 lung): 7.54 µM
- TGI (NCI-H226 lung): 36 µM
- GI50 (RXF 393 renal): 3.58 µM
- TGI (RXF 393 renal): 48.6 µM
- GI50 (SF-268 CNS): 7.59 µM
- TGI (SF-268 CNS): > 100 µM
- GI50 (A549 NSCLC): 3.78 µM
- TGI (A549 NSCLC): > 100 µM
- GI50 (MALME-3M melanoma): 16.1 µM
- TGI (MALME-3M melanoma): 83.2 µM
- GI50 (PC-3 prostate): 6.21 µM
- TGI (PC-3 prostate): > 100 µM
- GI50 (LOX IMVI melanoma): 4.95 µM
- TGI (LOX IMVI melanoma): 40.7 µM
- GI50 (786-0 renal): 4.03 µM
- TGI (786-0 renal): > 100 µM
- GI50 (SK-MEL-28 melanoma): 36.9 µM
- TGI (SK-MEL-28 melanoma): > 100 µM
- GI50 (MOLT-4 leukemia): 4.71 µM
- TGI (MOLT-4 leukemia): > 100 µM
- GI50 (HS 578T breast): 12.2 µM
- TGI (HS 578T breast): > 100 µM
- GI50 (OVCAR-4 ovarian): 3.87 µM
- TGI (OVCAR-4 ovarian): 21.9 µM
- GI50 (SNB-19 CNS): 5.85 µM
- TGI (SNB-19 CNS): > 100 µM
- GI50 (TK-10 renal): > 100 µM
- TGI (TK-10 renal): > 100 µM
- GI50 (IGROV1 ovarian): 7.37 µM
- TGI (IGROV1 ovarian): > 100 µM
- GI50 (UACC-62 melanoma): 13.8 µM
- TGI (UACC-62 melanoma): > 100 µM
- GI50 (MDA-MB-435): 8.65 µM
- TGI (MDA-MB-435): > 100 µM
